Values belong to the compound of their own block, whether it stands above or below them.
Columns and labels:
[1] = target: T1, Cholesteryl ester transfer protein (Homo sapiens, UniProt P11597); test: Inhibition of human plasma derived CETP; assay type: cell-free
T1 sequence (P11597 whole entry): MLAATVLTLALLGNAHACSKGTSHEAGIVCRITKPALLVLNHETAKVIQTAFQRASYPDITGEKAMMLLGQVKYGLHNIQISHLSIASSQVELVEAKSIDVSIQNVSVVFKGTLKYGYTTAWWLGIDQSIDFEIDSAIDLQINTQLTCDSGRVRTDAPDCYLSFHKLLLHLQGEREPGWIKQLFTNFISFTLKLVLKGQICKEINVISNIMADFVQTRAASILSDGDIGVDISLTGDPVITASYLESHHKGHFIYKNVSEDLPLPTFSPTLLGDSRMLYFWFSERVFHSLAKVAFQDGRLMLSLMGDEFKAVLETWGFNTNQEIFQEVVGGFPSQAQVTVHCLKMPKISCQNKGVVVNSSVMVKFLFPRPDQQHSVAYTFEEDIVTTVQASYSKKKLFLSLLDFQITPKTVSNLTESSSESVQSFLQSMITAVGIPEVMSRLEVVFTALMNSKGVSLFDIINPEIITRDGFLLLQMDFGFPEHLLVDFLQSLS

[2] = target: T2, Cholesteryl ester transfer protein (Homo sapiens) (UniProt P11597); test: Inhibition of human plasma derived CETP relative to control; set-up: concentration or dose not given beside the values; conditions: concentration not given here
T2 sequence (whole entry): T1 sequence (P11597 whole entry)

[3] = Permeability across human Caco-2 cell; assay type: ADME, cell-based; conditions: read-out: permeability
Cytochrome P450 2D6 = Cytochrome P450 2D6 (Homo sapiens, UniProt P10635); test: Inhibition of CYP2D6 from human liver microsomes; assay type: ADME
Cytochrome P450 2D6, sequence (P10635 whole entry): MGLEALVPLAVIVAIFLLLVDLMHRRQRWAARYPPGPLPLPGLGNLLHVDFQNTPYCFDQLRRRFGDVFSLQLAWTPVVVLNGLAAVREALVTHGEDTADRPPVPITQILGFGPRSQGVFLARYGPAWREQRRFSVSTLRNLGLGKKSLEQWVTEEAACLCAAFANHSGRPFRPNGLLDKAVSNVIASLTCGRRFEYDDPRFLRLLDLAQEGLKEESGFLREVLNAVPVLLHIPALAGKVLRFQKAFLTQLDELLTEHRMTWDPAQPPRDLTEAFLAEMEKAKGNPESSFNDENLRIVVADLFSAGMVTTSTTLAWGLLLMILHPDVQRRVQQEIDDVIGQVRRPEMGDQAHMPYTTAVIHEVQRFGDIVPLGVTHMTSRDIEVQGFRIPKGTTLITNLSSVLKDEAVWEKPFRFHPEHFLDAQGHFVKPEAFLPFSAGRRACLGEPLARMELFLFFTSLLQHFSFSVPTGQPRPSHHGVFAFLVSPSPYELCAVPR

Cytochrome P450 3A4 = Cytochrome P450 3A4 (Homo sapiens, UniProt P08684); test: Inhibition of CYP3A4 from human liver microsomes; assay type: ADME
Cytochrome P450 3A4, sequence (P08684 whole entry): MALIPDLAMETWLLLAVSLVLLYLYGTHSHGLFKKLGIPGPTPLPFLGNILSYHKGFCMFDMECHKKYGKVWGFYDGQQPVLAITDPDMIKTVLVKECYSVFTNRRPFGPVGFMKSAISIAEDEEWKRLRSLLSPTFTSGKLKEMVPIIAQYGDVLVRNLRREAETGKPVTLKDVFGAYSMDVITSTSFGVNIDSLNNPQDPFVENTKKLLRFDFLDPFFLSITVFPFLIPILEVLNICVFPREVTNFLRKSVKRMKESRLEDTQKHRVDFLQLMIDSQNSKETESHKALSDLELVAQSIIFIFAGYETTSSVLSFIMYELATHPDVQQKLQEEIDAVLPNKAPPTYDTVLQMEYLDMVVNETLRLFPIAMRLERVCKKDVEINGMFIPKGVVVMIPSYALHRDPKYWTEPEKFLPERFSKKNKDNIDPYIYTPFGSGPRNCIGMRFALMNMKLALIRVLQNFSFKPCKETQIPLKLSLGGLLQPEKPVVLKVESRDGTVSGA

[4] = Half life in Sprague-Dawley rat at 2 mg/kg, iv; assay type: ADME, organism-based; set-up: dose 2 mg/kg, route intravenous; conditions: in vivo
[5] = Metabolic stability in human liver microsomes assessed as half life; assay type: ADME, Microsome
[6] = AUC in Sprague-Dawley rat at 10 mg/kg, po; assay type: ADME, organism-based; set-up: dose 10 mg/kg, route oral; conditions: plasma
[7] = Oral bioavailability in Sprague-Dawley rat at 10 mg/kg; assay type: ADME, organism-based; conditions: in vivo
Cytochrome P450 2C9 = Cytochrome P450 2C9 (Homo sapiens, UniProt P11712); test: Inhibition of CYP2C9 from human liver microsomes; assay type: ADME
Cytochrome P450 2C9, sequence (P11712 whole entry): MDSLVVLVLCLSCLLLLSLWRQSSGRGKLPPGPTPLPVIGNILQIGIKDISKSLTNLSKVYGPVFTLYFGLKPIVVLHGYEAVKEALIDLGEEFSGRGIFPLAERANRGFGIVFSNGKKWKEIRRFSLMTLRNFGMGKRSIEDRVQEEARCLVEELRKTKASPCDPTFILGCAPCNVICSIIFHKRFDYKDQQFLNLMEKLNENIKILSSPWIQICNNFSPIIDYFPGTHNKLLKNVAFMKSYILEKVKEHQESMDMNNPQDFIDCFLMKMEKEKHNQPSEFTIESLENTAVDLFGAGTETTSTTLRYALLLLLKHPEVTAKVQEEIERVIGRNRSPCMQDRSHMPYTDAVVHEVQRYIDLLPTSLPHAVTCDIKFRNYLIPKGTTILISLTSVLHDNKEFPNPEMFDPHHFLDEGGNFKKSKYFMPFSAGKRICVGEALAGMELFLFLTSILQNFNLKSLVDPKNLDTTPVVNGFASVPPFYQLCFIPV

[8] = Plasma clearance in Sprague-Dawley rat at 2 mg/kg, iv; assay type: ADME, organism-based; set-up: dose 2 mg/kg, route intravenous
Cytochrome P450 1A2 = target: T3, Cytochrome P450 1A2 (Homo sapiens, UniProt P05177); test: Inhibition of CYP1A2 from human liver microsomes; assay type: ADME
T3 sequence (P05177 whole entry): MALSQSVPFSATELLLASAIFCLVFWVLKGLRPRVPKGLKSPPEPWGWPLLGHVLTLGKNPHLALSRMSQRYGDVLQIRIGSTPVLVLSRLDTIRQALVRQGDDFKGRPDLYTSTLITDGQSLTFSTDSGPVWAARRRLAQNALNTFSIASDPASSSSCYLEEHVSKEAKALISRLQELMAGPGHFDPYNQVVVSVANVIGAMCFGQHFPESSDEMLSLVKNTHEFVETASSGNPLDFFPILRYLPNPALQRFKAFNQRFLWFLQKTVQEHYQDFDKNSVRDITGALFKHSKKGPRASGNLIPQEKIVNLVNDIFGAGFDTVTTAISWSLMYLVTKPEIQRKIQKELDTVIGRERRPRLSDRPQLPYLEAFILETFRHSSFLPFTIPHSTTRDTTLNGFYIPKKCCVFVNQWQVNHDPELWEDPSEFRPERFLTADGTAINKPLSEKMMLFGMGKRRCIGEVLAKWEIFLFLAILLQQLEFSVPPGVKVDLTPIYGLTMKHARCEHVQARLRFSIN

[9] = Tmax in Sprague-Dawley rat at 10 mg/kg, po; assay type: ADME, organism-based; set-up: dose 10 mg/kg, route oral; conditions: in vivo
[10] = Cmax in Sprague-Dawley rat at 10 mg/kg, po; assay type: ADME, organism-based; set-up: dose 10 mg/kg, route oral; conditions: in vivo
[11] = Cmax in Sprague-Dawley rat at 2 mg/kg, iv; assay type: ADME, organism-based; set-up: dose 2 mg/kg, route intravenous; conditions: in vivo
[12] = Volume of distribution at steady state in Sprague-Dawley rat at 2 mg/kg, iv; assay type: ADME, organism-based; set-up: dose 2 mg/kg, route intravenous; conditions: in vivo, read-out: Vdss
Cytochrome P450 2C19 = Cytochrome P450 2C19 (Homo sapiens, UniProt P33261); test: Inhibition of CYP2C19 from human liver microsomes; assay type: ADME
Cytochrome P450 2C19, sequence (P33261 whole entry): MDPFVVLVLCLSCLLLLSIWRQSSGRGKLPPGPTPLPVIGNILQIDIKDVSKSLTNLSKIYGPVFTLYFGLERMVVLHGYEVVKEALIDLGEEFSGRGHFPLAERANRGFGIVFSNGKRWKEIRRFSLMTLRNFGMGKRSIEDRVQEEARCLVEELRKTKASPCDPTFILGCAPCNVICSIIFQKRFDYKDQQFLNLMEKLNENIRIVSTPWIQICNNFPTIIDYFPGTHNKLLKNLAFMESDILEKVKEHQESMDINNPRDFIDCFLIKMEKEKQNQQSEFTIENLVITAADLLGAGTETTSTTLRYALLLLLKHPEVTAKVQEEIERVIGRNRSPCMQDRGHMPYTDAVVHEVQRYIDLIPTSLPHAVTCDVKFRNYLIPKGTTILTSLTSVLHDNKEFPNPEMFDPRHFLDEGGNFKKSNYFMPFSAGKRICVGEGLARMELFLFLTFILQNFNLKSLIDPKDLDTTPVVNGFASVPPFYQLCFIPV

Cytochrome P450 2E1 = Cytochrome P450 2E1 (Homo sapiens, UniProt P05181); test: Inhibition of CYP2E1 from human liver microsomes; assay type: ADME
Cytochrome P450 2E1, sequence (P05181 whole entry): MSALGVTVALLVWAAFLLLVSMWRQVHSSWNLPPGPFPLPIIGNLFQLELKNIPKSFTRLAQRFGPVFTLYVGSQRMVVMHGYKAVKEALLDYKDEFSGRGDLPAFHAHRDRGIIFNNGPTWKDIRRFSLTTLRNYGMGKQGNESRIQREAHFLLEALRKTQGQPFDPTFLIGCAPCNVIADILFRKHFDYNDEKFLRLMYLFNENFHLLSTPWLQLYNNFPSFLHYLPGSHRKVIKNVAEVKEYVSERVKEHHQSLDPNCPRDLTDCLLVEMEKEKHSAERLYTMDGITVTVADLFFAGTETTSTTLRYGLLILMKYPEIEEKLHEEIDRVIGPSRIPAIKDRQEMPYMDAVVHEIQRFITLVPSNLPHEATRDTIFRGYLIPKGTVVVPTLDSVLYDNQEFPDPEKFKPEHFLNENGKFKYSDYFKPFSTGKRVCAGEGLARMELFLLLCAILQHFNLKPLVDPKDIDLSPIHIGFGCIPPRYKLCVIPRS

Cytochrome P450 2A6 = target: T4, Cytochrome P450 2A6 (Homo sapiens, UniProt P11509); test: Inhibition of CYP2A6 from human liver microsomes; assay type: ADME
T4 sequence (P11509 whole entry): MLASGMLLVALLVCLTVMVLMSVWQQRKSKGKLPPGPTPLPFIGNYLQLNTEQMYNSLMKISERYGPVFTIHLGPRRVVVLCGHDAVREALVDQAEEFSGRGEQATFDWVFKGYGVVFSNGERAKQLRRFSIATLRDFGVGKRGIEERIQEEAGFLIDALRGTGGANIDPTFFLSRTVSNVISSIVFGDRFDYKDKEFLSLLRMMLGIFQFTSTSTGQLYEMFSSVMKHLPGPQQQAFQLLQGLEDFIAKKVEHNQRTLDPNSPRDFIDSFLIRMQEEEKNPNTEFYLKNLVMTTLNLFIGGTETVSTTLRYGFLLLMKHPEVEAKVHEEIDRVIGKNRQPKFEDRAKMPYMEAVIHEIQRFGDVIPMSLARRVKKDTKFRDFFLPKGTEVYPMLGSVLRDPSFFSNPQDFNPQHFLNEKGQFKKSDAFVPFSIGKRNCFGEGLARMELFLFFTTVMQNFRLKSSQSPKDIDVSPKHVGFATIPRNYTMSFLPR

[13] = Half life in Sprague-Dawley rat at 10 mg/kg, po; assay type: ADME, organism-based; set-up: dose 10 mg/kg, route oral; conditions: in vivo
[14] = AUC in Sprague-Dawley rat at 2 mg/kg, iv; assay type: ADME, organism-based; set-up: dose 2 mg/kg, route intravenous; conditions: plasma

SMILES: O[C@H](CN1c2cccc(-c3cccc(OC(F)(F)F)c3)c2CC[C@@H]1c1cccc(OC(F)(F)F)c1)C(F)(F)F [TETRAHYDROQUINOLINE B]
IC50 [1]: > 3000 nM
inhibition [2]: 62%

SMILES: CC(C)Oc1cccc(-c2cccc3c2CCC(c2cccc(OC(F)(F)C(F)F)c2)N3CC(O)C(F)(F)F)c1 (stereo not given)
IC50 [1]: 345 nM
inhibition [2]: 55%

SMILES: C[C@@H](O)CN1c2cccc(-c3cccc(OC(F)(F)F)c3)c2CC[C@@H]1c1cccc(OC(F)(F)F)c1
IC50 [1]: 125 nM
inhibition [2]: 68%

SMILES: O[C@@H](CN1c2cccc(-c3cccc(OC(F)(F)F)c3)c2CC[C@@H]1c1cccc(OC(F)(F)F)c1)C(F)(F)F [TETRAHYDROQUINOLINE A]
Papp [3]: 4.7 ×10⁻⁶ cm/s
Activity (Cytochrome P450 2D6): Not Active
Activity (Cytochrome P450 3A4): Not Active
half-life [4]: 17.4 h
half-life [5]: > 2.13 h
IC50 [1]: 39 nM
AUC [6]: 31300 ng·h/mL
bioavailability [7]: 31%
Activity (Cytochrome P450 2C9): Not Active
inhibition [2]: 85%
clearance [8]: 1.8 mL/min/kg
Activity (Cytochrome P450 1A2): Not Active
Tmax [9]: 6 h
Cmax [10]: 950 ng/mL
Cmax [11]: 31400 ng/mL
Vd [12]: 0.36 L/kg
Activity (Cytochrome P450 2C19): Not Active
Activity (Cytochrome P450 2E1): Not Active
Activity (Cytochrome P450 2A6): Not Active
half-life [13]: 28 h
AUC [14]: 18900 ng·h/mL

SMILES: OC(CN1c2cccc(-c3cccs3)c2CCC1c1cccc(OC(F)(F)C(F)F)c1)C(F)(F)F (single isomer, unassigned; diastereomer 1)
IC50 [1]: 317 nM
inhibition [2]: 63%

Continued, values first:

IC50 [1]: 500 nM
inhibition [2]: 85%
SMILES: OC(CN1c2cccc(-c3ccc(OC(F)(F)F)cc3)c2CCC1c1cccc(OC(F)(F)C(F)F)c1)C(F)(F)F (single isomer, unassigned; diastereomer 1)

IC50 [1]: > 3000 nM
inhibition [2]: 47%
SMILES: OC(CN1c2cccc(-c3cccnc3)c2CCC1c1cccc(OC(F)(F)C(F)F)c1)C(F)(F)F (single isomer, unassigned; diastereomer 1)

IC50 [1]: 277 nM
inhibition [2]: 63%
SMILES: CC(C)c1cccc(-c2cccc3c2CCC(c2cccc(OC(F)(F)C(F)F)c2)N3CC(O)C(F)(F)F)c1 (single isomer, unassigned; diastereomer 1)
